# Reference: paper PMC8143347, “Metabolism and Interspecies Variation of IMMH-010, a Programmed Cell Death Ligand 1 Inhibitor Prodrug” (Pharmaceutics, 2021)
# Assay: Body weight in MC38 model
# Procedure: The antitumor activity of IMMH-010 was evaluated by B16F10 melanoma and MC38 colon carcinoma xenograft models. The B16F10 and MC38 cells were resuspended in saline (1.5 × 10^6 cells/0.2 mL saline) and injected subcutaneously into the right flanks of each mouse on day 0. The treated mice received once-daily oral administration of IMMH-010 maleate (1.25, 2.5, 5, and 10 mg/kg, n = 10) by oral gavage (PO) for 19 consecutive days, whereas the control mice received vehicle (0.5% carboxymethyl cellulose, n = 10). The mice in the positive control group received the anti-mouse PD-L1 antibody (696618M2, Bio X Cell, West Lebanon, NH, USA) at 10 mg/kg intraperitoneally every 3 days (n = 10). The first-line antineoplastic drug cyclophosphamide (CTX) was administered at doses of 80 and 40 mg/kg weekly in the B16F10 and MC38 models (n = 10), respectively. After the last treatment, on day 19, the mice were sacrificed, and the tumor and spleen were stripped and weighed. The tumor growth inhibition (TGI) was calculated as TGI = (1 − treatment group tumor weight/vehicle group tumor weight) × 100.
smiles,measurement,setting,value
CC(C)OC(=O)[C@H](CO)NCc1cc(Cl)c(OCc2cccc(-c3ccccc3)c2Br)cc1OCc1cccnc1 [IMMH-010],Body Weight (g) X ± SD Finish,"MC38, IMMH-010 maleate 1.25 mg/kg PO once daily 19 days",24.3 ± 2.1 g
same,Body Weight (g) X ± SD Start,"MC38, IMMH-010 maleate 1.25 mg/kg PO once daily",22.2 ± 0.4 g
same,Body Weight (g) X ± SD Finish,"MC38, IMMH-010 maleate 2.5 mg/kg PO once daily 19 days",25.3 ± 2.3 g
same,Body Weight (g) X ± SD Start,"MC38, IMMH-010 maleate 2.5 mg/kg PO once daily",22.0 ± 0.6 g
same,Body Weight (g) X ± SD Finish,"MC38, IMMH-010 maleate 5 mg/kg PO once daily 19 days",23.7 ± 1.8 g
same,Body Weight (g) X ± SD Start,"MC38, IMMH-010 maleate 5 mg/kg PO once daily",21.9 ± 0.8 g
same,Body Weight (g) X ± SD Finish,"MC38, IMMH-010 maleate 10 mg/kg PO once daily 19 days",25.0 ± 1.7 g
same,Body Weight (g) X ± SD Start,"MC38, IMMH-010 maleate 10 mg/kg PO once daily",21.9 ± 0.7 g
same,effect on body weight,"MC38 model, IMMH-010 maleate PO once a day for 19 days",without weight loss
